{"source": "patent US8729014B2", "about": "“Specific HCV NS3 protease inhibitors” (RFS Pharma, LLC, priority 2010, dated 2014)", "key": {"[1]": {"system": "HCV replicon RNA in Huh 7 Clone B cells", "test": "HCV replicon assay (replicon RNA, real time RT-PCR)", "type": "cell-based", "details": "for DCt HCV / HCV (% inhibition of replicon RNA): five days", "description": "Following five days incubation (37° C., 5% CO2), total cellular RNA was isolated by using versaGene RNA purification kit from Gentra. Replicon RNA and an internal control (TaqMan rRNA control reagents, Applied Biosystems) were amplified in a single step multiplex Real Time RT-PCR Assay. The antiviral effectiveness of the compounds was calculated by subtracting the threshold RT-PCR cycle of the test compound from the threshold RT-PCR cycle of the no-drug control (ΔCt HCV). A ΔCt of 3.3 equals a 1-log reduction (equal to 90% less starting material) in Replicon RNA levels. The cytotoxicity of the compounds was also calculated by using the ΔCt rRNA values. (2′-Me-C) was used as the control. To determine EC90 and IC50 values^2, ΔCt: values were first converted into fraction of starting material^3 and then were used to calculate the % inhibition."}, "[2]": {"target": "T1, Elastase (Human Neutrophil) (Homo sapiens, UniProt P08246)", "T1 construct": "purchased Athens Research and Technology 16-14-051200", "T1 sequence (P08246 30-267)": "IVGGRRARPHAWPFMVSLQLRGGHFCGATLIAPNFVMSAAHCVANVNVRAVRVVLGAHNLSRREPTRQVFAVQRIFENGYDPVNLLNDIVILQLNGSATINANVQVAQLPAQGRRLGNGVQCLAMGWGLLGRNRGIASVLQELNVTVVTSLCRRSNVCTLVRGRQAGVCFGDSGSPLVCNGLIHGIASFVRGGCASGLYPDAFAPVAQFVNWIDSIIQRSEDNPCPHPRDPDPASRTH", "test": "Inhibition of human proteases: elastase", "type": "biochemical", "description": "(§1) In an effort to circumvent similar toxicities, new protease inhibitors were evaluated for inhibition of a panel of important human proteases. The enzymes tested are Elastase (Neutrophil), Plasmin, Thrombin, and Cathepsin S.\nElastase (Human Neutrophil (Cat #16-14-051200 Athens Research and Technology, Athens Ga.)): Reactions were conducted in a sample volume of 100 μL per well in a clear 96 well plate. A 2× assay buffer was made containing 200 mM Tris-HCl (pH 7.5), 150 mM NaCl and 50% glycerol. For each sample 50 μL 2× assay buffer was added to each well. The substrate (MeOSuc-AAPV-pNA, Chromogenic Substrate, Cat #P-213, Enzo Life Sciences, Plymouth Meeting, Pa.; 50 mM stock in DMSO) was added to a final concentration of 1 mM. The drug dilutions were added (25 μL) at 4× concentrations in water. Finally, a mixture was made of 1 μL elastase and 22 μL water for each sample and 23 μL was added to each well. The samples were incubated at room temperature for 30 min. The absorbance at 405 nm was read on the Victor 3 plate reader. All samples were tested in duplicate. Results are shown as blank adjusted (no Elastase) percentages of maximum absorbance, which was given by a no inhibitor control."}, "human PBM cells": {"system": "human PBM cells", "test": "Cytotoxicity assay in human PBM cells", "type": "cell-based", "details": "Homo sapiens, PBMC; PBM cells, 100 μM", "description": "(§2) The toxicity of the compounds was assessed in Vero, human PBM, CEM (human lymphoblastoid), MT-2, and HepG2 cells, as described previously (see Schinazi R. F., Sommadossi J.-P., Saalmann V., Cannon D. L., Xie M.-Y., Hart G. C., Smith G. A. & Hahn E. F. Antimicrob. Agents Chemother. 1990, 34, 1061-67). Cycloheximide was included as positive cytotoxic control, and untreated cells exposed to solvent were included as negative controls. The cytotoxicity IC50 was obtained from the concentration-response curve using the median effective method described previously (see Chou T.-C. & Talalay P. Adv. Enzyme Regul. 1984, 22, 27-55; Belen'kii M. S. & Schinazi R. F. Antiviral Res. 1994, 25,1-11)."}, "[3]": {"test": "Cytotoxicity assay in human PBM cells", "type": "cell-based", "details": "human, human PBM cells", "description": "as §2"}, "[4]": {"system": "Hepatitis C Virus NS3/4A protease A156S", "test": "biochemical", "details": "A156S vs Wild Type"}, "[5]": {"target": "Hepatitis C Virus NS3/4A protease A156S (Hepatitis C virus genotype 1b, UniProt O92972, A1182S)", "sequence (O92972 1027-1657 A1182S)": "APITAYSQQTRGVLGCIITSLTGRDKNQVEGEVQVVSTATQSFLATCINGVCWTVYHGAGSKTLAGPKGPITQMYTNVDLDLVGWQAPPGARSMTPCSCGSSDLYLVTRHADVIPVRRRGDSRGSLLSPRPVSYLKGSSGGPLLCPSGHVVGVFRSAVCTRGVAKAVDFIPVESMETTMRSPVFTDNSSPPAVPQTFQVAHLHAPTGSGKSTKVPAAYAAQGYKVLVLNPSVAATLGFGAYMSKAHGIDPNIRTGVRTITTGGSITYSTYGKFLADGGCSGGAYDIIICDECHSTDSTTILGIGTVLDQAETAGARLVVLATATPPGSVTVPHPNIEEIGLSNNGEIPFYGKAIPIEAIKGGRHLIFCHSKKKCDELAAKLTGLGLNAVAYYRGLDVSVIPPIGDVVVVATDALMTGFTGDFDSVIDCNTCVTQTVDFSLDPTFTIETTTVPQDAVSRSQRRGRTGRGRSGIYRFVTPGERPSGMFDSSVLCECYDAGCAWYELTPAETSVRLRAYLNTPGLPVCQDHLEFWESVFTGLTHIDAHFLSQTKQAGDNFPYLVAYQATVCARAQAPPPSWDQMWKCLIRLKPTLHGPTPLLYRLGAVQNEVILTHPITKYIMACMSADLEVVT", "sequence (O92972 1658-1711 partner limits assumed)": "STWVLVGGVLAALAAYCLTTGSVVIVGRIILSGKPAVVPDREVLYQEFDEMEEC", "test": "biochemical"}, "[6]": {"test": "Cytotoxicity assay in CEM cells", "type": "cell-based, human", "details": "human, CEM (human lymphoblastoid) cells", "description": "as §2"}, "[7]": {"system": "CEM (human lymphoblastoid) cells", "test": "Cytotoxicity assay in CEM cells", "type": "cell-based", "details": "Homo sapiens, CCRF-CEM, 100 μM", "description": "as §2"}, "[8]": {"target": "Hepatitis C Virus NS3/4A protease A156T (Hepatitis C virus genotype 1b, UniProt O92972, A1182T)", "sequence (O92972 1027-1657 A1182T)": "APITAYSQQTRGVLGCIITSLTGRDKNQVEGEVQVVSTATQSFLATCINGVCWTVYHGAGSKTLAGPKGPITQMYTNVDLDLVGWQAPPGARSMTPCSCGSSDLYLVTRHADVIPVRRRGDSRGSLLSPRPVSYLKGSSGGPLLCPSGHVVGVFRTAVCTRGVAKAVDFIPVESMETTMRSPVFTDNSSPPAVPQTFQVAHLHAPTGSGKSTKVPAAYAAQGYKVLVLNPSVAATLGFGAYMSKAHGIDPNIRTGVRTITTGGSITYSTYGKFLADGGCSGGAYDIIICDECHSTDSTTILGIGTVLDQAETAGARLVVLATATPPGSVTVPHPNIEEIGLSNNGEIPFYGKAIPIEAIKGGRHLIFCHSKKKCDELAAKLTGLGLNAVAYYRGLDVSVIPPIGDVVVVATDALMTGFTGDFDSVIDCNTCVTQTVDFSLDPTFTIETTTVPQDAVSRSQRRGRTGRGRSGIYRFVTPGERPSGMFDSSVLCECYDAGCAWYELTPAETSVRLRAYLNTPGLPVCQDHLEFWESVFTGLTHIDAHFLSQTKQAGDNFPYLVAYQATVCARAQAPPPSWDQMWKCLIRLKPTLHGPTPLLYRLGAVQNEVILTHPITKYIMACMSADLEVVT", "sequence (O92972 1658-1711 partner limits assumed)": "as the sequence (O92972 1658-1711 partner limits assumed) above", "test": "biochemical"}, "[9]": {"system": "Hepatitis C Virus NS3/4A protease A156T", "test": "biochemical", "details": "A156T vs Wild Type"}, "Chymase": {"target": "Chymase (Homo sapiens, UniProt P23946)", "sequence (P23946 22-247)": "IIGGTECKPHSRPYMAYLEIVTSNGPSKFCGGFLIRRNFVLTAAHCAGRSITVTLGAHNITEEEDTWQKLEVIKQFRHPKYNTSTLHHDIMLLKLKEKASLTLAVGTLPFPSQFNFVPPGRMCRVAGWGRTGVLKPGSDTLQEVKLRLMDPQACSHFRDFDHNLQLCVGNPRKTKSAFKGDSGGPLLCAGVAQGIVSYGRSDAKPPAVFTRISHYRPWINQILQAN", "test": "Inhibition of human proteases: chymase", "type": "biochemical"}, "[10]": {"system": "Hepatitis C Virus NS3/4A protease D168A", "test": "biochemical", "details": "D168A vs Wild Type"}, "[11]": {"target": "Hepatitis C Virus NS3/4A protease D168A (Hepatitis C virus genotype 1b, UniProt O92972, D1194A)", "sequence (O92972 1027-1657 D1194A)": "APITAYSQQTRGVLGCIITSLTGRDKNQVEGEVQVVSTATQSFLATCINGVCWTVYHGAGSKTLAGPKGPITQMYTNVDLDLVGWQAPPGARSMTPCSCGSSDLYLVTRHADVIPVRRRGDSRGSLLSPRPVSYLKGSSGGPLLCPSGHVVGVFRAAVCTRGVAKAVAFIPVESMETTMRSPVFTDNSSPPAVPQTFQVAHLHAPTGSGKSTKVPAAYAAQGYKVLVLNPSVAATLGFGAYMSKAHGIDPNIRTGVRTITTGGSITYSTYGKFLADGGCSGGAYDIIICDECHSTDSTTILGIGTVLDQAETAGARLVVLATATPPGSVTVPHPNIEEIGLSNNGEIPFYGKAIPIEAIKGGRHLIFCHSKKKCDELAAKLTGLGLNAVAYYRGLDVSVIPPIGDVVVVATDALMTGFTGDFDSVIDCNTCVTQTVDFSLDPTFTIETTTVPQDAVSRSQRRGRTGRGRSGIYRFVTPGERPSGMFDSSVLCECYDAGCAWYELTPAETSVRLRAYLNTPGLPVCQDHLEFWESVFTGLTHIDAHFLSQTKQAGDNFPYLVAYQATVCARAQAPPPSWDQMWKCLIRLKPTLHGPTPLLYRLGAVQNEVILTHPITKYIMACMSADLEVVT", "sequence (O92972 1658-1711 partner limits assumed)": "as the sequence (O92972 1658-1711 partner limits assumed) above", "test": "biochemical"}, "Kallikrein": {"system": "Kallikrein", "test": "Inhibition of human proteases: kallikrein", "type": "biochemical"}, "Cathepsin S": {"target": "T2, Cathepsin S (Homo sapiens, UniProt P25774)", "T2 construct": "purchased Anaspec", "T2 sequence (P25774 115-331)": "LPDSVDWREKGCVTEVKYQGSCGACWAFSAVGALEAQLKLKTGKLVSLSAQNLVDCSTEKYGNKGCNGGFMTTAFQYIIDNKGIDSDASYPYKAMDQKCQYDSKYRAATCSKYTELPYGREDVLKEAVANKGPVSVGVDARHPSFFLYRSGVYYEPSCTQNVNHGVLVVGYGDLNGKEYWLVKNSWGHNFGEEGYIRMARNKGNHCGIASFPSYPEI", "test": "Inhibition of human proteases: cathepsin S", "type": "biochemical", "description": "as §1\nCathespsin S (Sensolyte Cathepsin S Activity Assay Kit (Anaspec)): Reactions were conducted in a sample volume of 100 μL per well in a black 96 well plate. Protocol A was followed from the kit insert where DTT was added to assay buffer to yield a […] concentration. Included in each assay were a positive control (diluted enzyme and no test compound), inhibitor control (contains diluted enzyme and plasmin inhibitor; component E or thrombin inhibitor; N-a-NAPAP synthetic inhibitor) and substrate control (assay buffer and substrate). Vehicle and autofluorescence controls were also performed. Drug dilutions were added (10 μL) at 10× concentrations in assay buffer. The cathepsin S was added at 40 μL/well at a concentration of 2.5 μg/mL to all wells except the substrate control. Finally, 50 µL of assay buffer containing substrate was added to each well. The substrate was added to a final concentration of 16 nM. […] The fluorescence intensity was read on the Victor 3 plate reader at Ex/Em=490 nm/520 nm. […] Results are shown as substrate control adjusted percentages of maximum absorbance, which was given by the positive control."}, "[12]": {"details": "Hepatitis C virus, HCV replicon, Huh 7 Clone B cells"}}, "data": [{"smiles": "C=C[C@@H]1C[C@]1(NC(=O)[C@@H]1C[C@@H](OC(=O)N2Cc3cccc(F)c3C2)CN1C(=O)[C@@H](NC(=O)OC(C)(C)C)C(C)(C)C)C(=O)NS(=O)(=O)C1CC1", "note": "[Compound 10]", "values": [{"measurement": "DCt HCV", "setting": "[1]; Conc 0.01 μM", "value": 1.16}, {"measurement": "HCV (% inhibition of replicon RNA)", "setting": "[1]; Conc 0.01 μM", "value": 54.99}, {"measurement": "DCt HCV", "setting": "[1]; Conc 0.03 μM", "value": 3.29}, {"measurement": "HCV (% inhibition of replicon RNA)", "setting": "[1]; Conc 0.03 μM", "value": 89.67}, {"measurement": "DCt HCV", "setting": "[1]; Conc 0.1 μM", "value": 6.05}, {"measurement": "HCV (% inhibition of replicon RNA)", "setting": "[1]; Conc 0.1 μM", "value": 98.47}, {"measurement": "DCt HCV", "setting": "[1]; Conc 0.3 μM", "value": 8.72}, {"measurement": "HCV (% inhibition of replicon RNA)", "setting": "[1]; Conc 0.3 μM", "value": 99.76}, {"measurement": "EC50", "setting": "[1]; [12]", "value": 10, "unit": "nM"}, {"measurement": "EC90", "setting": "[1]; [12]", "value": 30, "unit": "nM"}, {"measurement": "IC50", "setting": "[2]", "value": "> 100000", "unit": "nM"}, {"measurement": "inhibition at 100 µM", "setting": "human PBM cells", "value": 17, "unit": "%"}, {"measurement": "IC50", "setting": "[3]", "value": "> 100000", "unit": "nM"}, {"measurement": "Fold Increase of EC50", "setting": "[4]", "value": 1.6}, {"measurement": "Fold Increase of EC90", "setting": "[4]", "value": 2.9}, {"measurement": "EC50", "setting": "[5]", "value": 8, "unit": "nM"}, {"measurement": "EC90", "setting": "[5]; A156S, read-out: Anti-HCV protease activity EC90", "value": 85, "unit": "nM"}, {"measurement": "IC50", "setting": "[6]", "value": "> 100000", "unit": "nM"}, {"measurement": "inhibition at 100 µM", "setting": "[7]", "value": 11, "unit": "%"}, {"measurement": "EC50", "setting": "[8]", "value": 33, "unit": "nM"}, {"measurement": "EC90", "setting": "[8]; A156T, read-out: Anti-HCV protease activity EC90", "value": 130, "unit": "nM"}, {"measurement": "Fold Increase of EC50", "setting": "[9]", "value": 6.7}, {"measurement": "Fold Increase of EC90", "setting": "[9]", "value": 4.4}, {"measurement": "IC50", "setting": "Chymase", "value": "> 100000", "unit": "nM"}, {"measurement": "Fold Increase of EC50", "setting": "[10]", "value": 115.3}, {"measurement": "Fold Increase of EC90", "setting": "[10]", "value": 278.5}, {"measurement": "EC50", "setting": "[11]", "value": 570, "unit": "nM"}, {"measurement": "EC90", "setting": "[11]; D168A, read-out: Anti-HCV protease activity EC90", "value": 8300, "unit": "nM"}, {"measurement": "IC50", "setting": "Kallikrein", "value": 47000, "unit": "nM"}, {"measurement": "IC50", "setting": "Cathepsin S", "value": "> 100000", "unit": "nM"}]}]}
